Measurements from the supplement of paper PMC10307832.

Tests used:
Test in all cases: relative viability (nuclei count vs DMSO), 5 days (fraction); higher = more cells survive
BAY61-3606 + Lapatinib = compound: COC1=C(C=C(C=C1)C2=CC3=NC=CN3C(=N2)NC4=C(C=CC=N4)C(=O)N)OC [BAY61-3606] + CS(=O)(=O)CCNCc1ccc(-c2ccc3ncnc(Nc4ccc(OCc5cccc(F)c5)c(Cl)c4)c3c2)o1 [Lapatinib] (partner 2 µM)
Outline: (§1)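 Relative viability equals treated-well nuclei counts divided by vehicle-well nuclei counts. Counts came from 4× images of lung cancer cell lines grown in 1536-well plates for 5 days after pin-tool dosing on the day after seeding. Dosing used one drug alone or a fixed anchor-drug dose plus five library-drug doses (not always all listed) in √10 steps, and values are medians of duplicate plates.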

Doxorubicin + Decitabine = compound: COc1cccc2c1C(=O)c1c(O)c3c(c(O)c1C2=O)C[C@@](O)(C(=O)CO)C[C@@H]3O[C@H]1C[C@H](N)[C@H](O)[C@H](C)O1 [Doxorubicin] + Nc1ncn([C@H]2C[C@H](O)[C@@H](CO)O2)c(=O)n1 [Decitabine] (partner 2 µM)
Outline: as §1

Doxorubicin + Tozasertib = compound: COc1cccc2c1C(=O)c1c(O)c3c(c(O)c1C2=O)C[C@@](O)(C(=O)CO)C[C@@H]3O[C@H]1C[C@H](N)[C@H](O)[C@H](C)O1 [Doxorubicin] + Cc1cc(Nc2cc(N3CCN(C)CC3)nc(Sc3ccc(NC(=O)C4CC4)cc3)n2)n[nH]1 [Tozasertib] (partner 0.1 µM)
Outline: as §1

BAY61-3606 + Olaparib = compound: COC1=C(C=C(C=C1)C2=CC3=NC=CN3C(=N2)NC4=C(C=CC=N4)C(=O)N)OC [BAY61-3606] + O=C(c1cc(Cc2n[nH]c(=O)c3ccccc23)ccc1F)N1CCN(C(=O)C2CC2)CC1 [Olaparib] (partner 8 µM)
Outline: as §1

Cell Line	relative viability (BAY61-3606 + Lapatinib; first compound 0.02 µM)	relative viability (BAY61-3606 + Lapatinib; first compound 0.06325 µM)	relative viability (BAY61-3606 + Lapatinib; first compound 0.2 µM)	relative viability (BAY61-3606 + Lapatinib; first compound 0.6325 µM)	relative viability (BAY61-3606 + Lapatinib; first compound 2 µM)	relative viability (Doxorubicin + Decitabine; first compound 0.001 µM)	relative viability (Doxorubicin + Decitabine; first compound 0.003162 µM)	relative viability (Doxorubicin + Decitabine; first compound 0.01 µM)	relative viability (Doxorubicin + Decitabine; first compound 0.03162 µM)	relative viability (Doxorubicin + Decitabine; first compound 0.1 µM)	relative viability (Doxorubicin + Tozasertib; first compound 0.001 µM)	relative viability (Doxorubicin + Tozasertib; first compound 0.003162 µM)	relative viability (Doxorubicin + Tozasertib; first compound 0.01 µM)	relative viability (Doxorubicin + Tozasertib; first compound 0.03162 µM)	relative viability (Doxorubicin + Tozasertib; first compound 0.1 µM)	relative viability (BAY61-3606 + Olaparib; first compound 0.02 µM)	relative viability (BAY61-3606 + Olaparib; first compound 0.06325 µM)	relative viability (BAY61-3606 + Olaparib; first compound 0.2 µM)	relative viability (BAY61-3606 + Olaparib; first compound 0.6325 µM)	relative viability (BAY61-3606 + Olaparib; first compound 2 µM)
201T	1.08	1.01	1.11	1.03	0.996	0.899	0.879	0.824	0.835	0.804	0.924	0.955	0.949	0.927	0.924	0.833	0.842	0.865	0.838	0.824
A549	1.09	1.15	1.05	0.953	0.902	0.245	0.266	0.257	0.179	0.235						0.332	0.377	0.217	0.312	0.336
A-427	1.07	1.1	1.05	1.04	1.01	0.585	0.625	0.553	0.456	0.4	0.241	0.215	0.183	0.238	0.213	0.79	0.694	0.765	0.777	0.715
ABC-1	1.34	1.03	1.23	1.05	0.98	0.993	1.18	0.955	0.708	0.726	0.223	0.207	0.153	0.184	0.181	0.908	0.686	0.76	0.494	0.711
BEN	0.938	0.694	0.679	0.757	0.787	0.757	0.714	0.712	0.62	0.607	0.587	0.564	0.576	0.469	0.54	1.2	0.865	1.16	1.29	0.972
CAL-12T	0.805	0.596	0.613	0.768	0.637						0.339	0.283	0.257	0.207	0.136	0.748	0.773	0.735	0.758	0.53
COR-L23	0.872	1.08	0.826	1.04	0.834	0.427	0.452	0.391	0.253	0.157	0.227	0.186	0.201	0.123	0.122	0.343	0.356	0.411	0.353	0.269
COR-L 105	0.355	0.378	0.418	0.417	0.351	0.626	0.734	0.506	0.53	0.384	0.424	0.368	0.443	0.334	0.344	0.741	0.658	0.603	0.787	0.584
Calu-6	1.09	1.23	1.09	1.02	0.923											0.659	0.562	0.543	0.551	0.466
ChaGo-K-1						0.524	0.557	0.482	0.473	0.527	0.229	0.199	0.222	0.208	0.226	0.442	0.452	0.368	0.392	0.357
EBC-1	0.218	0.228	0.181	0.243	0.244											0.712	0.769	0.701	0.748	0.614
EKVX	0.365	0.184	0.214	0.198	0.193	0.389	0.34	0.307	0.296	0.375	0.35	0.434	0.383	0.415	0.342	0.99	0.999	0.798	0.91	0.782
EMC-BAC-2	0.882	0.969	0.861	1.11	0.921	0.983	0.781	0.614	0.321	0.338	0.321	0.26	0.308	0.25	0.216	0.493	0.52	0.48	0.493	0.457
EPLC-272H	1.18	0.809	0.876	0.878	0.808	0.382	0.324	0.32	0.387	0.423	0.423	0.401	0.238	0.26	0.506	0.962	0.722	0.706	0.709	0.323
H3255	0.257	0.203	0.274	0.249	0.229		0.533	0.604	0.568	0.583	0.59	0.759	0.573	0.604	0.539	0.545	0.486	0.511	0.582	0.516
HARA	0.798	0.643	0.721	0.862	0.735	0.796	0.425	0.519	0.507	0.407	0.112	0.126	0.241	0.128	0.145	1.02	0.929	1.06	0.845	0.619
HCC-15	0.891	0.921	0.851	0.875	0.792	0.628	0.704	0.571	0.408	0.211		0.428	0.454	0.201	0.116	0.668	0.685	0.729	0.719	0.655
